Assay results from BindingDB's records for doi:10.1016/j.bmcl.2019.126637 (Eli Lilly, 2019).

Target: Cyclin-Y/Cyclin-dependent kinase 16 (Homo sapiens, UniProt Q00536+Q8ND76)
Experiment: Competitive irreversible inhibition of CDK16/cyclin Y (unknown origin) in presence of Km ATP

Chain of Cyclin-Y/Cyclin-dependent kinase 16 (Q00536 whole entry): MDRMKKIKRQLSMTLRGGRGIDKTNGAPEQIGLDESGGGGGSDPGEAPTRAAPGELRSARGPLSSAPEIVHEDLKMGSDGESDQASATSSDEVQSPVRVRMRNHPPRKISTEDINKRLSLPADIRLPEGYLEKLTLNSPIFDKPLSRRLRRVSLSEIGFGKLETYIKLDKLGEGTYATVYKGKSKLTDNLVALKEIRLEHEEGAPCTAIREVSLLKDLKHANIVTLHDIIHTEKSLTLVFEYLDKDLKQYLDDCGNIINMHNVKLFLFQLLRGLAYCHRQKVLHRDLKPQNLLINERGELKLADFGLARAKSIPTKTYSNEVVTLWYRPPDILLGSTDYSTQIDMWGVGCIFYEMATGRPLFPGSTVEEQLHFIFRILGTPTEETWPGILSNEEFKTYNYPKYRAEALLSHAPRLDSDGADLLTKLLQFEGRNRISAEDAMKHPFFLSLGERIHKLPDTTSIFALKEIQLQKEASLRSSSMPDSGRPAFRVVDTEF
Chain of Cyclin-Y/Cyclin-dependent kinase 16 (Q8ND76 whole entry): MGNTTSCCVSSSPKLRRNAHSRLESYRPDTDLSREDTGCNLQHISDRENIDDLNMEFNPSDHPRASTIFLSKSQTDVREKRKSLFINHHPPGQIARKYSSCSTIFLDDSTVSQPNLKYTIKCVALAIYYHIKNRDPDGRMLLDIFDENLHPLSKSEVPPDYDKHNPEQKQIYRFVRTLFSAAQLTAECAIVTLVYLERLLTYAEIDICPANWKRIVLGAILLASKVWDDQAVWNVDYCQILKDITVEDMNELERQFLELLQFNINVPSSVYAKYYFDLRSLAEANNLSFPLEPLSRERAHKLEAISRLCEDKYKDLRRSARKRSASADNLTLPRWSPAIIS

## CN(C)C/C=C/C(=O)Nc1cccc(S(=O)(=O)N2CCC(NC(=O)c3n[nH]cc3NC(=O)c3c(Cl)cc(Cl)cc3Cl)CC2)c1
  IC50: 10 nM
